From patent US9719093B2, “Composition for treating cancer associated with HPV infection” (priority 2012, dated 2017)

Test system: HeLa cell line
Test: Cell senescence-associated β-galactosidase (SA-β-gal) activity
Type: cell-based
Conditions: treated alone
Description: A HeLa or Caski cell line, which was seeded in a 6-well plate in 2×10^5 cells or 1.5×10^5 cells and then cultured for a day by the method as described above, was transduced with siRNA. Then, each transduced cell line was treated with cisplatin (CDDP) in a final concentration of 2.5 uM, and cultured.
By using the cell senescence assay kit (BioVision, USA), cells were washed with PBS and treated with SA-β-gal staining solution for 12 hours at 37. Cells stained in blue were observed by using a general optical microscope with the magnification of 100 to 200 times.
SA β-Gal activity of a HeLA or Caski cell line, which was treated by the method as described above, was measured.

## N.N.[Cl][Pt][Cl] [cisplatin]
  SA β-Gal activity (staining): cells were stained in blue
